Source: patent US7524853B2 (Solvay Pharmaceuticals B.V., priority 2003, dated 2009)

What was measured:
Assay type in all cases: cell-based
[1] = biological target: T1, 17β-hydroxysteroid dehydrogenase type 1 (17β-HSD type 1) (Homo sapiens, UniProt P14061); test: Inhibition of 17β-HSD type 1 in MCF-7 cells stably expressing the isoenzyme (tritium labeled estrone conversion, HPLC); conditions: MCF7, MCF-7 cells expressing 17β-HSD type 1, 2 nM tritium labeled estrone; for inhibition at 1 µM: 1 μM test compound, read-out: % Inhibition HSD1 1 μM; for inhibition at 10 µM: 10 μM test compound, read-out: % Inhibition HSD1 10 μM
T1 construct: expressed in transfected cells; host or cells: MCF-7
T1 sequence (P14061 1-328): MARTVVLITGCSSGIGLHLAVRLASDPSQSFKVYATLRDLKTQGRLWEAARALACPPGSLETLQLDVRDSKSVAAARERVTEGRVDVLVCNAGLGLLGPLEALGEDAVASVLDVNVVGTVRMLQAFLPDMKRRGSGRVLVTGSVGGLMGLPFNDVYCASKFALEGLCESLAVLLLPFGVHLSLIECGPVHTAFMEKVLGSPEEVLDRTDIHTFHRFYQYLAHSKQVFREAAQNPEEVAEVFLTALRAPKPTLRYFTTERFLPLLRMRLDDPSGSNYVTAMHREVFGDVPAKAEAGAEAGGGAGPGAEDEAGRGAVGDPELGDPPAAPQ
Method in brief: (§1)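 Percent inhibition derived by comparing substrate conversion with versus without compound, quantified by HPLC–radioflow detection after TCA stop. Cells were stably transfected MCF-7 expressing type 1, 2 or 3 enzyme, given 2 nM labeled estrone, estradiol or androstenedione respectively; compounds tested at two concentrations.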

[2] = biological target: T2, 17β-hydroxysteroid dehydrogenase type 2 (17β-HSD type 2) (Homo sapiens, UniProt P37059); test: Inhibition of 17β-HSD type 2 in MCF-7 cells stably expressing the isoenzyme (tritium labeled estradiol conversion, HPLC); conditions: MCF7, MCF-7 cells expressing 17β-HSD type 2, 2 nM tritium labeled estradiol; for inhibition at 1 µM: 1 μM test compound, read-out: % Inhibition HSD2 1 μM; for inhibition at 10 µM: 10 μM test compound, read-out: % Inhibition HSD2 10 μM
T2 construct: expressed in transfected cells; host or cells: MCF-7
T2 sequence (P37059 1-387): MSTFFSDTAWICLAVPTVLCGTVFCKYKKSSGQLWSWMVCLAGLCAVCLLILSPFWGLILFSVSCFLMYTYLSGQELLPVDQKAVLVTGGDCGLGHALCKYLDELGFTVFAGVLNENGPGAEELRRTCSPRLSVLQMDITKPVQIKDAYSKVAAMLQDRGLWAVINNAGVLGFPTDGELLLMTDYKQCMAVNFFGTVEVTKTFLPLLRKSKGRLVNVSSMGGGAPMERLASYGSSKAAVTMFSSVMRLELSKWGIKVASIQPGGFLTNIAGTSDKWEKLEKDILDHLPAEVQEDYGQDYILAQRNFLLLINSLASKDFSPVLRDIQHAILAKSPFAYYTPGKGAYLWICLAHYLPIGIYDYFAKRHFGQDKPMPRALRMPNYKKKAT
Method in brief: as §1

[3] = biological target: T3, 17β-hydroxysteroid dehydrogenase type 3 (17β-HSD type 3) (Homo sapiens, UniProt P37058); test: Inhibition of 17β-HSD type 3 in MCF-7 cells stably expressing the isoenzyme (tritium labeled androstenedione conversion, HPLC); conditions: MCF7, MCF-7 cells expressing 17β-HSD type 3, 2 nM tritium labeled androstenedione; for inhibition at 1 µM: 1 μM test compound, read-out: % Inhibition HSD3 1 μM; for inhibition at 10 µM: 10 μM test compound, read-out: % Inhibition HSD3 10 μM
T3 construct: expressed in transfected cells; host or cells: MCF-7
T3 sequence (P37058 1-310): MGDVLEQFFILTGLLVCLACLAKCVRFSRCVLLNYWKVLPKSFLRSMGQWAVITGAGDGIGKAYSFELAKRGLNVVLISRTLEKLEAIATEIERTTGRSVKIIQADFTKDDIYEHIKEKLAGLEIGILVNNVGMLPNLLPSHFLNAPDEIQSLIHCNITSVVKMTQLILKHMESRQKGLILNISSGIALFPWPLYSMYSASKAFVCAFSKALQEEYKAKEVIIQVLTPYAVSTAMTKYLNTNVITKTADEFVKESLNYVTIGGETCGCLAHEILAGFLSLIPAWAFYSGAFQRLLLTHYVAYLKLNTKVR
Method in brief: as §1

SMILES	inhibition at 1 µM [1] [%]	inhibition at 10 µM [1] [%]	inhibition at 1 µM [2] [%]	inhibition at 10 µM [2] [%]	inhibition at 1 µM [3] [%]	inhibition at 10 µM [3] [%]
CCCCn1c(-c2cc(OC)c(OC)c(OC)c2)nc2sc3c(c2c1=O)CCC(Br)(Br)C3=O [No. 88, 3-Butyl-7,7-dibromo-2-(3,4,5-trimethoxyphenyl)-6,7-dihydro-3H,5H-benzo[4,5]thieno[2,3-d]pyrimidine-4,8-dione]	25	40.5	25.9	29.9	20.4	23.3
CCCCn1c(-c2cc(OC)c(OC)c(OC)c2)nc2sc3c(O)cccc3c2c1=O [No. 89, 3-Butyl-8-hydroxy-2-(3,4,5-trimethoxyphenyl)-3H-benzo[4,5]thieno[2,3-d]pyrimidin-4-one]	37.7	84.7	31.2	40.1	30.9	80.1
CCCCn1c(-c2cc(OC)c(OC)c(OC)c2)nc2sc3c(O)c(Br)ccc3c2c1=O [No. 90, 7-Bromo-3-butyl-8-hydroxy-2-(3,4,5-trimethoxyphenyl)-3H-benzo[4,5]thieno[2,3-d]pyrimidin-4-one]	15.5	24.7	16.1	22	4	11.3
COc1cc(-c2nc3sc4c(OC)cccc4c3c(=O)n2Cc2ccccc2)c(Br)c(OC)c1OC [No. 91, 3-Benzyl-8-methoxy-2-(2-bromo-3,4,5-trimethoxyphenyl)-3H-benzo[4,5]thieno[2,3-d]pyrimidin-4-one]	21.5	26.1	28.2	33.7	3.7	18.1
O=c1c2c(nc(-c3ccccc3)n1Cc1ccccc1)sc1c(O)c(Br)ccc12 [No. 92, 3-Benzyl-7-bromo-8-hydroxy-2-phenyl-3H-benzo[4,5]thieno[2,3-d]pyrimidin-4-one]	22	23.3	42.7	60.9	4.7	24.3

Other lines, results leading:

inhibition at 1 µM [1] [%]	inhibition at 10 µM [1] [%]	inhibition at 1 µM [2] [%]	inhibition at 10 µM [2] [%]	inhibition at 1 µM [3] [%]	inhibition at 10 µM [3] [%]	SMILES
13.3	11.7	43.2	57.7	19.4	26.1	CC(=O)Oc1c(Br)ccc2c1sc1nc(-c3ccccc3)n(Cc3ccccc3)c(=O)c12 [No. 93, Acetic acid 3-benzyl-7-bromo-4-oxo-2-phenyl-3,4-dihydro-benzo[4,5]thieno[2,3-d]pyrimidin-8-yl ester]
16.5	27.2	25.7	31.5	2.2	21.1	CCCc1nc2sc3c(c2c(=O)n1Cc1ccccc1OC)CCCC3 [No. 94, 3-(2-Methoxybenzyl)-2-propyl-5,6,7,8-tetrahydro-3H-benzo[4,5]thieno[2,3-d]pyrimidin-4-one]
17	59.6	6.9	31.2	9.9	62.4	CCCc1nc2sc3c(c2c(=O)n1Cc1ccccc1OC)CCCC3=O [No. 95, 3-(2-Methoxybenzyl)-2-propyl-6,7-dihydro-3H,5H-benzo[4,5]thieno[2,3-d]pyrimidine-4,8-dione]
19.5	65.1	17.2	21.9	13	37.5	CCCc1nc2sc3c(c2c(=O)n1Cc1cc(Br)ccc1OC)CCC(Br)C3=O (stereo not drawn) [No. 96]
18.1	29.4	25.2	44.6	-5.9	11.5	CCCc1nc2sc3c(c2c(=O)n1Cc1cc(Br)ccc1OC)CCC(Br)(Br)C3=O [No. 97, 7,7-Dibromo-3-(5-bromo-2-methoxybenzyl)-2-propyl-6,7-dihydro-3H,5H-benzo[4,5]thieno[2,3-d]pyrimidine-4,8-dione]
